Measured values reported in PMC12281485, “High-Throughput Screening of Potent Drug-like Molecules Targeting 17β-HSD10 for the Treatment of Alzheimer’s Disease and Cancer” (ACS Chemical Biology, 2025).
Where two headings read alike, the source gives them in different places.

Experiments:
[1] = system: HEK293 cells overexpressing 17β-HSD10; assay: LDH cytotoxicity assay; type: cell-based, human; details: 50 μM compound, 24 h, n = 3 ± SD
Experimental: Cell cytotoxicity was assessed via the measurement of LDH leakage into the culture medium using a commercially available kit from Pierce (Thermo Scientific cat no. 88953). This was carried out in accordance with the kit guidelines, with the activity of LDH being calculated from the change in absorbance at […]. Human embryonic kidney (HEK293) cells overexpressing 17β-HSD10 were cultured in phenol-red free media (10% FBS, 1 mM sodium pyruvate, 100 units penicillin, 0.1 mg mL^–1 streptomycin, and 2 mM L-glutamine) and seeded at a density of 10,000 cells per well (100 μL, 96-well plates). […] Treated cells were then incubated at 37 °C and CO2 (5%) for 24 h before the LDH assay was performed as per the manufacturer’s instructions. Spontaneous control (water) and maximum control (lysis buffer) were used in accordance with the kit guide. Absorbance was measured at 490 and 680 nm using the SpectraMaxM2e spectrophotometer. The measured LDH activity was used to calculate %cytotoxicity using the following equation (eq ): %cytotoxicity=(compoundtreatedLDHactivity−spontaneousLDHactivity)/(maximumLDHactivity−spontaneousLDHactivity)×100 1

[2] = Alamar Blue cell viability assay; type: cell-based, human; details: human, HEK293 cells overexpressing 17β-HSD10, 50 μM compound, n = 3 ± SD, read-out: Alamar Blue % viability (50 μM dose)
Experimental: Cell viability was assessed via fluorescence change using the commercially available Alamar Blue from ThermoFisher. HEK293 cells overexpressing 17β-HSD10 were cultured in phenol-red free media (10% FBS, 1 mM sodium pyruvate, 100 units penicillin, 0.1 mg mL^–1 streptomycin, and 2 mM L-glutamine) and seeded at a density of 10,000 cells per well (100 μL, 96-well plates). […] Treated cells were then incubated at 37 °C and CO2 (5%) for 24 h before the assay was performed as per the manufacturer’s instructions. Fluorescence was measured at 530 nm excitation and 590 nm emission using the SpectraMaxM2e spectrophotometer.

17β-HSD10 [3] = target: T1, 17β-HSD10 (Homo sapiens, UniProt Q99714); assay: 17β-HSD10 enzyme inhibition dose-response assay (acetoacetyl-CoA/NADH, absorbance 340 nm); type: biochemical; details: for fold improvement in activity/potency over hit ESC1002082: relative to ESC1002082
T1 construct: Recombinant 17β-HSD10 was expressed and purified as previously described in Aitken et al; made in house
T1 sequence (Q99714 1-261): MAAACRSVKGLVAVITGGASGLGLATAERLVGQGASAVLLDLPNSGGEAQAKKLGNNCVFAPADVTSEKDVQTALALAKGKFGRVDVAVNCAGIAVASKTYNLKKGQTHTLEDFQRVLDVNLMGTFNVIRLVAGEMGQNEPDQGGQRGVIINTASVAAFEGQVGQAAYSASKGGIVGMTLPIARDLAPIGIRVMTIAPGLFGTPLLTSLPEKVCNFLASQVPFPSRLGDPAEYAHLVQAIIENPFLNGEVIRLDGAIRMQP
Experimental: Recombinant 17β-HSD10 was expressed and purified as previously described in Aitken et al.
17β-HSD10 screening was carried out as described in Aitken et al. with the exception that experiments were also conducted in clear-bottom 1536-well low-volume microplates (Corning) with a final assay volume of 20 μL. For primary screening, an endpoint assay format was adopted, in which an Echo acoustic liquid dispenser (Labcyte) was used to transfer 20 nL of either DMSO control […] or test compounds (10 μM) to the assay plate. 10 μL of the 17β-HSD10 enzyme in an assay buffer (2.5 nM) was then added to the plates using the Preddator liquid handling robot (Redd and Whyte), and plates were incubated at RT for 15 min. 10 μL of the substrate mixture (100 μM acetoacetyl-CoA and 100 μM NADH) was added with the Preddator. To start the reaction, the plates were left to incubate for 35 min at RT before the absorbance at 340 nm was read on the EnVision plate reader (PerkinElmer). For the kinetic assay format and dose-response follow-up experiments, the same protocol was adopted, except that the absorbance at 340 nm was monitored constantly for 45 min from immediately after the reaction was started.

17β-HSD10 [4] = target: T1, 17β-HSD10; assay: (−)-CHANA fluorescence assay of cellular 17β-HSD10 activity; type: cell-based; details: read-out: cellular 17β-HSD10 activity mean pEC50 (converted)
Experimental: (−)–CHANA ((−)-cyclohexenyl amino naphthalene alcohol) is a fluorogenic probe that can be used to detect 17β-HSD10 activity in living cells. HEK293 17β-HSD10 cells were seeded at a density of 10,000 cells per well (100 μL, 96-well black plates) in phenol-red free media (10% FBS, 1 mM sodium pyruvate, 100 units penicillin, 0.1 mg mL^–1 streptomycin, and 2 mM L-glutamine). […] The fluorogenic probe (−)–CHANA was then added to each well to give a final assay concentration of 20 μM. Fluorescence was immediately measured using the FLUOstar Optima microplate reader (excitation = 380 nm, emission = 520 nm, orbital averaging = 3 mm), and the initial reaction was monitored for 3–4 h. EC50 was calculated from the control-subtracted triplicates using nonlinear regression (four parameters) of GraphPad Prism 5 software. The Final EC50 and SEM values were obtained as a mean of at least three independent measurements.

[5] = Mouse hepatocyte metabolic stability; type: in vitro ADME; parameters: k (elimination constant): unit not given here; details: mouse hepatocytes; for Heps category: metabolism category; for Cl (clearance): limits of quantitation 0.5 and 50; for half-life: read-out: T1/2 (half-life)
Experimental: Hepatocyte isolation, hepatocyte incubations for metabolic stability, plasma protein binding (PPB) experiments, and LC/MS sample analysis were carried out as previously described in Brandon et al. and MacLeod et al.
XLfit (IDBS, UK) was used to calculate the exponential decay and the rate constant (k) from the ratio of the peak area of the test compound to the internal standard at each time point. […] Verapamil, 7-ethoxycoumarin, 7-hydroxycoumarin, and phthalazine were used as positive controls to confirm acceptable assay performance. […] Values were transferred to RStudio v1.3.1093 (Posit, Boston, MA, USA) for generation of scatter plots and heatmaps using the ggplot2 package (Wickham 2016).

[6] = Table 3, chemically modified singleton hit compound series, read-out: 17β-HSD10 pIC50 (converted)
[7] = Table 5, read-out: mean 17β-HSD10 pIC50 (converted)
[8] = Table 4, 17β-HSD10 overexpressing HEK293 cells, CHANA fluorescence assay
[9] = Table 5, HEK293 17β-HSD10 cells, CHANA assay
[10] = Table 1, primary screening assay, resynthesized HTS hits, read-out: 17β-HSD10 pIC50 (converted)
[11] = Table 2, chemically modified cluster hit compounds, read-out: 17β-HSD10 pIC50 (converted)

| Compound | LDH % toxicity (50 μM dose) [1] [%] | viability at 24 h, 50 μM [2] [%] | IC50 (17β-HSD10 [3]; [6]) [nM] | EC50 (17β-HSD10 [4]; [8]) [nM] | IC50 (17β-HSD10 [3]; [11]) [nM] | further results |
| --- | --- | --- | --- | --- | --- | --- |
| COc1cccc(-c2ccccc2C2CCCN2C(=O)c2sccc2Cl)c1 (centres unmarked) [ESC1002606] | 5.09 ± 0.02 | 78 ± 1.09 |  |  |  |  |
| COc1cccc(-c2ccccc2C2CCCN2C(=O)c2[nH]ncc2Cl)c1 (centres unmarked) [ESC1002757] | 5.03 ± 0.02 | 89.52 ± 0.84 | 115 | 266 |  | LipE (17β-HSD10 [3]): 2.76; IC50 (17β-HSD10 [3]; [7]): 105 nM; EC50 (17β-HSD10 [4]; [9]): 266 nM; k (elimination constant) [5]: 0.13; Heps category [5]: high; Cl (clearance) [5]: >50 mL/min/g liver; half-life [5]: 5.3 min |
| COc1ccc(-c2ccccc2[C@@H]2CCCN2C(=O)c2sccc2C)cc1 [ESC1002089] | 5.40 ± 0.05 | 82 ± 2.23 | 331 | 1790 |  | fold improvement in activity/potency over hit ESC1002082 (17β-HSD10 [3]): ~3 fold |
| O=C(c1sccc1Cl)N1CCCC1c1ccccc1-c1ccc(F)c(O)c1 (centres unmarked) [ESC1002775] | 2.54 ± 0.004 | 81.53 ± 0.56 | 49 | 449 |  |  |
| O=C(c1sccc1Cl)N1CCCC1c1ccccc1-c1cc(O)cc(F)c1 (centres unmarked) [ESC1002801] | 5.50 ± 0.01 | 82.55 ± 0.62 | 51.3 | 50 |  |  |
| CC(C)CN(C(=O)c1ccncc1)c1cccc(N(C)Cc2cnc[nH]2)c1 [ESC1002034] |  |  |  |  |  | IC50 (17β-HSD10 [3]; [10]): 1580 nM |
| COc1cccc(-c2ccccc2[C@H]2CCCN2C(=O)c2ccccc2C)c1 [ESC1002434] |  |  |  |  |  | 17β-HSD10 inhibitory activity (in words) (17β-HSD10 [3]): not tolerated |
| CC(C)CN(C(=O)c1ccccc1F)c1cccc(NCc2c[nH]cn2)c1 [ESC1002631] |  |  |  |  | 9330 |  |
| Cc1ccsc1C(=O)N1CCC[C@H]1c1ccccc1-c1cnn(C)c1 [ESC1002424] |  |  | 933 |  |  | LipE (17β-HSD10 [3]): 2.1 |
| COc1cccc(C(=O)N(CC(C)C)c2cccc(N(C)Cc3cnc[nH]3)c2)c1 [ESC1002038] |  |  |  |  |  | IC50 (17β-HSD10 [3]; [10]): 2000 nM |
| COc1cccc(-c2ccccc2C2CCCN2C(=O)c2sccc2C)c1 (centres unmarked) [ESC1002338] | 4.64 ± 0.01 | 83 ± 1.25 |  | 1150 |  | IC50 (17β-HSD10 [3]; enzyme screening assay, read-out: IC50): 191 nM |
| COc1cccc(-c2ccccc2C2CCCN2C(=O)c2sccc2Cl)c1 (racemic) [ESC1002432] | 4.24 ± 0.02 | 80.61 ± 0.78 |  |  |  |  |
| CC(C)CN(C(=O)C1CCCCC1)c1cccc(N(C)Cc2cnc[nH]2)c1 [ESC1002166] | 4.55 ± 0.02 | 78.9 ± 0.9 |  | 976 | 955 |  |
| CC(C)CN(C(=O)c1ccc(Cl)cc1F)c1cccc(N(C)Cc2cnc[nH]2)c1 [ESC1002042] |  |  |  |  | 316 | LipE (17β-HSD10 [3]; Table 1, lipophilic efficiency): 1.46 |
| CC(C)CN(C(=O)c1ccccc1F)c1cccc(N(C)Cc2ccn[nH]2)c1 [ESC1002205] | 5.84 ± 0.01 | 82.52 ± 0.57 |  | 3130 | 891 |  |
| Cc1nc[nH]c1CN(C)c1cccc(N(CC(C)C)C(=O)c2ccccc2F)c1 [ESC1002204] | 5.05 ± 0.01 | 96.7 ± 3.61 |  | 1360 | 398 | IC50 (17β-HSD10 [3]; [7]): 398 nM; EC50 (17β-HSD10 [4]; [9]): 1360 nM; k (elimination constant) [5]: 0.11; Heps category [5]: high; Cl (clearance) [5]: >50 mL/min/g liver; half-life [5]: 6.2 min |
| O=C(c1ccccc1F)N1CCCc2ccc(NCc3cnc[nH]3)cc21 [ESC1002081] |  |  |  |  |  | 17β-HSD10 inhibitory activity (in words) (17β-HSD10 [3]): potency was abolished |
| COc1cccc(-c2ccccc2C2CCCN2Cc2sccc2F)c1 (centres unmarked) [ESC1002695] |  |  |  |  |  | 17β-HSD10 inhibitory activity (in words) (17β-HSD10 [3]): lost all activity |
| O=C(c1sccc1Cl)N1CCCC1c1ccccc1-c1cccc(O)c1 (centres unmarked) [ESC1002755] | 5.47 ± 0.04 | 85.3 ± 2.01 | 20 | 28 |  | IC50 (17β-HSD10 [3]; [7]): 18.6 nM; fold improvement in activity/potency over hit ESC1002082 (17β-HSD10 [3]): 40 fold; EC50 (17β-HSD10 [4]; [9]): 28 nM; k (elimination constant) [5]: 0.22; Heps category [5]: high; Cl (clearance) [5]: >50 mL/min/g liver; half-life [5]: 3.1 min |
| Cc1ccc(C(=O)N(CC(C)C)c2cccc(N(C)Cc3cnc[nH]3)c2)cc1 [ESC1002032] |  |  |  |  | 251 |  |
| COc1ccc(-c2ccccc2[C@@H]2CCCN2C(=O)c2sccc2C)cn1 [ESC1002161] |  |  |  |  |  | 17β-HSD10 pIC50 (17β-HSD10 [3]; Supplementary B, Table S1 and text, enantiomers): < 4.7 |
| Cc1ccsc1C(=O)N1CCC[C@H]1c1ccccc1-c1cccnc1 [ESC1002090] |  |  | 1150 |  |  |  |
| COc1ccc(C(=O)N(CC(C)C)c2cccc(N(C)Cc3cnc[nH]3)c2)cc1 [ESC1002182] | 4.73 ± 0.01 | 85.4 ± 3.61 |  | 1670 | 331 |  |
| COc1cccc(-c2ccccc2[C@@H]2CCCN2C(=O)c2[nH]ncc2Cl)c1 [ESC1002626] |  |  | 457 |  |  |  |
| O=C(c1sccc1Cl)N1CCC[C@H]1c1ccccc1-c1cccc(O)c1 [ESC1002666] | 4.49 ± 0.02 | 79.3 ± 1.03 | 58.9 | 138 |  |  |
| COc1ccc(-c2ccccc2C2CCCN2C(=O)c2sccc2C)cc1 (centres unmarked) [ESC1002332] | 3.52 ± 0.01 | 87.7 ± 1.67 |  | 7220 | 166 |  |
| O=C(c1sccc1Cl)N1CCCC1c1ccccc1-c1cc(O)cc(F)c1 (racemic) [ESC1002776] | 20.00 ± 0.11 | 65.6 ± 1.67 | 40.7 | 228 |  |  |
| COc1ccc(C(=O)N(CC(C)C)c2cccc(N(C)Cc3c[nH]cn3)c2)c(F)c1 [ESC1002576] | 5.19 ± 0.01 | 79.1 ± 0.99 |  | 599 | 245 |  |
